Laboratory results reported in patent US20240315947A1, “COSMETIC COMPOSITION COMPRISING MOLECULAR AGGREGATES OF BILE ACIDS OR BILE ACID SALTS” (SCAI THERAPEUTICS CO., LTD., priority 2021, published 2024).
Like-named read-outs stand apart in the source and are kept apart here.

Legend:
[1] = design: species or system SD rats; conditions: rat, in vivo
Excerpt: The interscapular region (back of the neck near the ear) of 10-week-old SD rats (280-350 g) with sufficient subcutaneous adipose tissue was shaved and anesthetized.

[2] = system: skin, subcutaneous tissue of the interscapular region; experiment: SD rat histological analysis (H&E, Masson's trichome staining); format: in vivo, SD rats; conditions: subcutaneous injection, 500 μL of 1%
Excerpt: The interscapular region (back of the neck near the ear) of 10-week-old SD rats (280-350 g) with sufficient subcutaneous adipose tissue was shaved and anesthetized. […].
Then, tissues (skin, subcutaneous tissue) of the interscapular region were collected, fixed, and subjected to H&E staining and Masson's trichome staining. Tissue changes were investigated through microscopic observation.

[3] = system: 3T3-L1 preadipocytes; experiment: Preadipocyte cytotoxicity (cell counting kit-8); conditions: treated for 4 hours
Experimental: 3T3-L1 preadipocytes were inoculated into a 96 well plate at 5×10^3 per well, grown in medium (high glucose DMEM, 10% bovine calf serum, 1% penicillin/streptomycin) for 16 hours. The drug was prepared to contain 0.04% and 0.08%, respectively, and then treated for 4 hours. After adding 10 μl of Dojingo CK04-11 cell counting kit-8 to each well according to the manual, reacting for 2 hours, the absorbance at 450 nm was measured with a spectrophotometer to compare preadipocyte cytotoxicity.

| Molecule | amount of DCA in the subcutaneous tissue [1] | amount of DCA in the subcutaneous tissue ([1]; sc) | tissue damage (H&E staining) [2] | tissue findings at section creation (Masson's trichome staining) [2] | preadipocyte cytotoxicity (comparison between test materials) ([3]; 0.04%) | survival rate of preadipocytes ([3]; 0.08%) |
| --- | --- | --- | --- | --- | --- | --- |
| C[C@H](CCC(=O)O)[C@H]1CC[C@H]2[C@@H]3CC[C@@H]4C[C@H](O)CC[C@]4(C)[C@H]3C[C@H](O)[C@]12C [deoxycholic acid] | increased over time | gradually decreased | severe tissue damage | hematoma and edema |  |  |
| Sodium deoxycholate [precursor of deoxycholic acid salt] |  |  |  |  | the same | 24.6% |
